US11629171B2, “Beta-hairpin peptidomimetics” (POLYPHOR AG, priority 2017, dated 2023)
Values after ≈ are worked out from the molar mass of the structure shown. Where a SMILES comes first, the peptide text is derived from it. Bridges are numbered along the chain shown (N, C = ends). Roman numbers before positions name the chains, in order. [ ]: non-standard residue; d: D form. dDab = NCC[C@@H](N)C(=O)O; Nle = CCCC[C@H](N)C(=O)O; Dab = NCC[C@H](N)C(=O)O; Dap = NC[C@H](N)C(=O)O

Assays:
Type in all cases: cell-based
[1] = test system: Acinetobacter baumannii 872842; conditions: 872842
In short: (§1)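 MIC in μg/mL, read as no visible growth after 18-20 hours at 35° C. Peptides were serially diluted two-fold in MH-II broth plus P-80 (0.002% final, v/v) and inoculated at about 10^6 CFU/mL following the CLSI broth microdilution standard.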

[2] = test system: Acinetobacter baumannii DSM 30008; conditions: DSM 30008
In short: as §1

[3] = test system: Enterobacter cloacae 848840; conditions: 848840
In short: as §1

Escherichia coli 926415 = conditions: 926415
In short: as §1

[4] = test system: Escherichia coli ATCC 25922; conditions: ATCC 25922
In short: as §1

[5] = test system: Klebsiella pneumoniae 968733; conditions: 968733
In short: as §1

[6] = test system: Klebsiella pneumoniae SSI #3010; conditions: SSI #3010
In short: as §1

[7] = test system: Pseudomonas aeruginosa ATCC 27853; conditions: ATCC 27853
In short: as §1

[8] = test system: human red blood cells (hRBC); experiment: Hemolysis; conditions: red cells of human, 1 h, 200
In short: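 Percent hemolysis relative to 2% Triton X-100 (100%) and PBS/10% water (0%), from blank-corrected OD540 of diluted supernatants. Peptides tested at 200 μg/mL against 20% (v/v) washed human erythrocytes, 1 h, 37° C, shaking at 300 rpm.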

| Structure (SMILES) | MIC [1] [µg/mL] | Acinetobacter baumannii DSM 30008 MIC [2] [µg/mL] | MIC [3] [µg/mL] | MIC (Escherichia coli 926415) [µg/mL] | Escherichia coli ATCC 25922 MIC [4] [µg/mL] | MIC [5] [µg/mL] | Klebsiella pneumoniae SSI #3010 MIC [6] [µg/mL] | Pseudomonas aeruginosa ATCC 27853 MIC [7] [µg/mL] | Hemolysis at 200 μg/mL [8] [%] |
| --- | --- | --- | --- | --- | --- | --- | --- | --- | --- |
| CC(=O)N[C@H](C(=O)N[C@H]1CNC(=O)CC[C@@H](C(=O)N[C@@H](CO)C(N)=O)NC(=O)[C@H](C(C)C)NC(=O)[C@H](CO)NC(=O)[C@H](Cc2c[nH]c3ccccc23)NC(=O)[C@H](CO)NC(=O)[C@@H](CCN)NC(=O)[C@H](CCC(=O)N[C@@H](CCN)C(=O)N[C@H](C(=O)N[C@@H](CN)C(=O)N[C@H]2CCNC(=O)[C@H]([C@@H](C)O)NC(=O)[C@H](CCN)NC(=O)[C@H](CCN)NC(=O)[C@H](CC(C)C)NC(=O)[C@@H](CC(C)C)NC(=O)[C@H](CCN)NC2=O)[C@@H](C)O)NC(=O)[C@H](CCN)NC(=O)[C@H](Cc2ccc(O)cc2)NC1=O)C(C)C [Ex. 320] (I: Ac-V[Dap]Y[Dab]E[dDab]SWSVES-NH2 / II: [Dab]T[Dap][Dab][Dab][dL]L[Dab][Dab]T; lactam I:2-I:11, II:4-II:C; amide I:5-II:N) | 1 (≈ 0.418 µM) | 0.5 | 2 (≈ 0.836 µM) | 4 (≈ 1.67 µM) | 0.0625 | 8 (≈ 3.34 µM) | 0.125 | 0.25 | <1 |
| CC(=O)N[C@H](C(=O)N[C@H]1CCNC(=O)CC[C@@H](C(=O)N[C@@H](CO)C(N)=O)NC(=O)[C@H](C(C)C)NC(=O)[C@H](CO)NC(=O)[C@H](Cc2c[nH]c3ccccc23)NC(=O)[C@H](CO)NC(=O)[C@@H](CCN)NC(=O)[C@H](CCC(=O)N[C@@H](CCN)C(=O)N[C@H](C(=O)N[C@@H](CCN)C(=O)N[C@H]2CCNC(=O)[C@H]([C@@H](C)O)NC(=O)[C@H](CCN)NC(=O)[C@H](CCN)NC(=O)[C@H](CC(C)C)NC(=O)[C@@H](CC(C)C)NC(=O)[C@H](CCN)NC2=O)[C@@H](C)O)NC(=O)[C@H](CCN)NC(=O)[C@H](Cc2ccc(O)cc2)NC1=O)C(C)C [Ex. 321] (I: Ac-V[Dab]Y[Dab]E[dDab]SWSVES-NH2 / II: [Dab]T[Dab][Dab][Dab][dL]L[Dab][Dab]T; lactam I:2-I:11, II:4-II:C; amide I:5-II:N) | 0.25 (≈ 0.103 µM) | 0.125 | 0.25 (≈ 0.103 µM) | 0.5 (≈ 0.207 µM) | 0.0625 | 1 (≈ 0.413 µM) | 0.125 | 0.125 | 0 |
| CC[C@H](C)[C@@H]1NC(=O)[C@H](CO)NC(=O)[C@H](Cc2c[nH]c3ccccc23)NC(=O)[C@H](CO)NC(=O)[C@@H](CCN)NC(=O)[C@H](CCC(=O)N[C@@H](CCN)C(=O)N[C@H](C(=O)N[C@@H](CN)C(=O)N[C@H]2CCNC(=O)[C@H]([C@@H](C)O)NC(=O)[C@H](CCN)NC(=O)[C@H](CCN)NC(=O)[C@H](CC(C)C)NC(=O)[C@@H](CC(C)C)NC(=O)[C@H](CCN)NC2=O)[C@@H](C)O)NC(=O)[C@H](CN)NC(=O)[C@H](Cc2ccc(O)cc2)NC(=O)[C@@H](NC(=O)[C@@H](NC(C)=O)C(C)C)CCNC(=O)CC[C@@H](C(=O)N[C@@H](CO)C(N)=O)NC1=O [Ex. 322] (I: Ac-V[Dab]Y[Dap]E[dDab]SWSIES-NH2 / II: [Dab]T[Dap][Dab][Dab][dL]L[Dab][Dab]T; lactam I:2-I:11, II:4-II:C; amide I:5-II:N) | 0.0625 (≈ 0.026 µM) | 0.0625 | 0.0625 (≈ 0.026 µM) | 0.125 (≈ 0.052 µM) | 0.0625 | 0.25 (≈ 0.104 µM) | 0.125 | 0.125 | <1 |
| CC[C@H](C)[C@@H]1NC(=O)[C@H](CO)NC(=O)[C@H](Cc2c[nH]c3ccccc23)NC(=O)[C@H](CO)NC(=O)[C@@H](CCN)NC(=O)[C@H](CCC(=O)N[C@@H](CCN)C(=O)N[C@H](C(=O)N[C@@H](CN)C(=O)N[C@H]2CCNC(=O)[C@H]([C@@H](C)O)NC(=O)[C@H](CCN)NC(=O)[C@H](CCN)NC(=O)[C@H](CC(C)C)NC(=O)[C@@H](CC(C)C)NC(=O)[C@H](CCN)NC2=O)[C@@H](C)O)NC(=O)[C@H](CCN)NC(=O)[C@H](Cc2ccc(O)cc2)NC(=O)[C@@H](NC(=O)[C@@H](NC(C)=O)C(C)C)CCNC(=O)C[C@@H](C(=O)N[C@@H](CO)C(N)=O)NC1=O [Ex. 323] (I: Ac-V[Dab]Y[Dab]E[dDab]SWSIDS-NH2 / II: [Dab]T[Dap][Dab][Dab][dL]L[Dab][Dab]T; lactam I:2-I:11, II:4-II:C; amide I:5-II:N) | 0.0625 (≈ 0.026 µM) | 0.0625 | 0.125 (≈ 0.052 µM) | 0.25 (≈ 0.104 µM) | 0.0625 | 0.5 (≈ 0.208 µM) | 0.125 | 0.125 | <1 |
| CC[C@H](C)[C@@H]1NC(=O)[C@H](CO)NC(=O)[C@H](Cc2c[nH]c3ccccc23)NC(=O)[C@H](CO)NC(=O)[C@@H](CCN)NC(=O)[C@H](CCC(=O)N[C@@H](CCN)C(=O)N[C@H](C(=O)N[C@@H](CN)C(=O)N[C@H]2CCNC(=O)[C@H]([C@@H](C)O)NC(=O)[C@H](CCN)NC(=O)[C@H](CCN)NC(=O)[C@H](CC(C)C)NC(=O)[C@@H](CC(C)C)NC(=O)[C@H](CCN)NC2=O)[C@@H](C)O)NC(=O)[C@H](CCN)NC(=O)[C@H](Cc2ccc(O)cc2)NC(=O)[C@@H](NC(=O)[C@@H](NC(C)=O)C(C)C)CCNC(=O)CC[C@@H](C(=O)N[C@@H](CO)C(N)=O)NC1=O [Ex. 324] (I: Ac-V[Dab]Y[Dab]E[dDab]SWSIES-NH2 / II: [Dab]T[Dap][Dab][Dab][dL]L[Dab][Dab]T; lactam I:2-I:11, II:4-II:C; amide I:5-II:N) | 0.125 (≈ 0.0517 µM) | 0.0625 | 0.125 (≈ 0.0517 µM) | 0.125 (≈ 0.0517 µM) | 0.0625 | 0.5 (≈ 0.207 µM) | 0.0625 | 0.0625 | <1 |
| CCCC[C@@H]1NC(=O)[C@H](CO)NC(=O)[C@H](Cc2c[nH]c3ccccc23)NC(=O)[C@H](CO)NC(=O)[C@@H](CCN)NC(=O)[C@H](CCC(=O)N[C@@H](CCN)C(=O)N[C@H](C(=O)N[C@@H](CN)C(=O)N[C@H]2CCNC(=O)[C@H]([C@@H](C)O)NC(=O)[C@H](CCN)NC(=O)[C@H](CCN)NC(=O)[C@H](CC(C)C)NC(=O)[C@@H](CC(C)C)NC(=O)[C@H](CCN)NC2=O)[C@@H](C)O)NC(=O)[C@H](CCN)NC(=O)[C@H](Cc2ccc(O)cc2)NC(=O)[C@@H](NC(=O)[C@@H](NC(C)=O)C(C)C)CCNC(=O)C[C@@H](C(=O)N[C@@H](CO)C(N)=O)NC1=O [Ex. 325] (I: Ac-V[Dab]Y[Dab]E[dDab]SWS[Nle]DS-NH2 / II: [Dab]T[Dap][Dab][Dab][dL]L[Dab][Dab]T; lactam I:2-I:11, II:4-II:C; amide I:5-II:N) | 0.125 (≈ 0.052 µM) | 0.0625 | 0.0625 (≈ 0.026 µM) | 0.125 (≈ 0.052 µM) | 0.0625 | 0.5 (≈ 0.208 µM) | 0.0625 | 0.125 | <1 |
| CCCC[C@@H]1NC(=O)[C@H](CO)NC(=O)[C@H](Cc2c[nH]c3ccccc23)NC(=O)[C@H](CO)NC(=O)[C@@H](CCN)NC(=O)[C@H](CCC(=O)N[C@@H](CCN)C(=O)N[C@H](C(=O)N[C@@H](CN)C(=O)N[C@H]2CCNC(=O)[C@H]([C@@H](C)O)NC(=O)[C@H](CCN)NC(=O)[C@H](CCN)NC(=O)[C@H](CC(C)C)NC(=O)[C@@H](CC(C)C)NC(=O)[C@H](CCN)NC2=O)[C@@H](C)O)NC(=O)[C@H](CCN)NC(=O)[C@H](Cc2ccc(O)cc2)NC(=O)[C@@H](NC(=O)[C@@H](NC(C)=O)C(C)C)CCNC(=O)CC[C@@H](C(=O)N[C@@H](CO)C(N)=O)NC1=O [Ex. 326] (I: Ac-V[Dab]Y[Dab]E[dDab]SWS[Nle]ES-NH2 / II: [Dab]T[Dap][Dab][Dab][dL]L[Dab][Dab]T; lactam I:2-I:11, II:4-II:C; amide I:5-II:N) | 0.125 (≈ 0.0517 µM) | 0.0625 | 0.0625 (≈ 0.0258 µM) | 0.125 (≈ 0.0517 µM) | 0.0625 | 0.5 (≈ 0.207 µM) | 0.0625 | 0.0625 | <1 |
